Laboratory results from US20130109017A1, “MULTIPLE MYELOMA PROGNOSIS AND TREATMENT” (University of Utah Research Foundation, priority 2010, published 2013).

Assays:
[1] = system: 5TGM1/C57BL/KaLwRij mouse myeloma model; assay: Serum IgG2b level in 5TGM1/C57BL/KaLwRij myeloma mice; conditions: bortezomib 1 mg/kg, PTH 80 μg/kg; p=0.017, p=0.029, p=0.017 respectively; FIG. 7
Experimental: A preclinical myeloma model was employed to examine the effects of PTH and bortezomib (velcade) on proteasome activity with respect to bone remodeling and MM pathogenesis. As such, myelomatous C57BL/KaLwRij mice were injected with 5TGM1 multiple myeloma cells as described. […] Briefly, 5TGM1 inoculation cultures were harvested, centrifuged, washed twice in 50 mL phosphate-buffered saline (PBS), and resuspended at 5×10^6 cells per mL of PBS. Experimental mice were injected with 100 μl of inoculation culture via tail vein injection using a 27-gauge needle. Control animals received injections of PBS.
Each experimental group included 5 mice, and one week after 5TGM1 cell injection, bortezomib, PTH, and/or {[TYR^34]bPTH-(7-34)} were administered in various combinations. The following groups, each containing five mice, were analyzed: untreated controls; bortezomib-treated mice; PTH treated mice; PTH and bortezomib treated mice; and 5{[TYR^34]bPTH-(7-34)} and bortezomib treated mice.
In accord with the experimental procedure outline above, bortezomib (velcade), at a concentration of 1 mg/kg, was administered to the mice via intraperitoneal injection alone, or in combination with PTH or the anti-PTH compound, twice a week (FIG. 6). PTH was added in a similar fashion, once-daily, alone, or in combination with bortezomib, at a concentration of 80 μg/kg. […]

5TGM1 myeloma cells = assay: 5TGM1 myeloma cell proliferation; assay type: cell-based, mouse; conditions: for 5TGM1 cell growth compared to controls: once a day, FIG. 2
Experimental: Blood. 93: 1697-1706 (1999). 5TGM1 cells were grown in Hyclone classical liquid media RPMI 1640 (Thermo Scientific Hyclone, Logan, Utah) supplemented with heat-inactivated fetal bovine serum (Thermo Scientific Hyclone, Logan, Utah) and 1% penicillin-streptomycin solution (GIBCO, Grand Island, N.Y.) at 37° C. in 5% CO2. Additionally, two bortezomib-resistant MM cell lines, RPMI 8226 and ARP1, were generated via a stepwise increase in bortezomib (velcade) concentration.
Initially, 5TGM1 myeloma cells were seeded in 24-well plates (10^5 cells/mL) using RPMI-1640, supplemented with 2% FBS, in the presence or absence of bortezomib (velcade), PTH, and/or {[TYR^34]bPTH-(7-34)}.

[2] = system: bortezomib-resistant RPMI 8226 MM cell line; assay: IC50 of bortezomib in bortezomib-resistant RPMI 8226 cells; assay type: cell-based; conditions: RPMI8226 bortezomib-resistant cells
Experimental: 5TGM1 myeloma cells (Noboru et al., A multiresponse parathyroid hormone assay: an inhibitor has agonist properties in vivo. American Physiological Society. E589-95 (1983)) were initially derived from the myeloma cell line 5T33, which were obtained from C57BL/KaLwRij mice. See Dallas et al., Ibandronate Reduces Osteolytic Lesions but not Tumor Burden in a Murine Model of Myeloma Bone Disease. Blood. 93: 1697-1706 (1999). 5TGM1 cells were grown in Hyclone classical liquid media RPMI 1640 (Thermo Scientific Hyclone, Logan, Utah) supplemented with heat-inactivated fetal bovine serum (Thermo Scientific Hyclone, Logan, Utah) and 1% penicillin-streptomycin solution (GIBCO, Grand Island, N.Y.) at 37° C. in 5% CO2. Additionally, two bortezomib-resistant MM cell lines, RPMI 8226 and ARP1, were generated via a stepwise increase in bortezomib (velcade) concentration.

[3] = system: 5TGM1/C57BL/KaLwRij mouse myeloma model; assay: Overall survival of 5TGM1/C57BL/KaLwRij myeloma mice; assay type: in vivo
Experimental: Blood. 114 Abstract 2865 (2009). […] Control animals received injections of PBS.
In this regard, the anti-PTH compound, {[TYR^34]bPTH-(7-34)}, was also tested in the presence or absence of bortezomib and PTH to determine whether myeloma growth and/or bone formation were affected. Similar experiments were performed using carfilzomib as shown below.
C57BL/KaLwRij mice (n=5) were subcutaneously injected carfilzomib (1.5 mg/kg) twice a week. The anti-PTH compound (500 μg/kg) was also administered to the mice 3 days prior and 1 day prior to carfilzomib treatment, where noted. Tumor burden was monitored by measuring IgG2b serum concentration twice a week.

`CC(C)C[C@H](NC(=O)[C@H](Cc1ccccc1)NC(=O)c1cnccn1)B(O)O` [bortezomib] was tested. Which “serum IgG level compared to controls” value [1] did it give?
The value was “significant inhibition”.

What about the “5TGM1 cell proliferation compared to controls” value (5TGM1 myeloma cells; bortezomib alone at 5 nM or 10 nM, every other day, p=0.01 at 5 nM, p=0.001 at 10 nM, FIG. 1) of the same molecule?
Its value is “concentration dependent reduction in 5TGM1 cell proliferation”.

What about the IC50 [2] of the same molecule?
The IC50 was 250 nM.

And the “increased survival versus control mice” value ([3]; bortezomib 1 mg/kg intraperitoneal twice a week)?
The value was 40%.

What about the maximum survival ([3]; bortezomib 1 mg/kg intraperitoneal twice a week, control mice maximum five weeks) of the same molecule?
The maximum survival was “up to seven”.

What about the “survival compared to controls” value ([3]; bortezomib 1 mg/kg intraperitoneal twice a week, p=0.044, FIG. 6) of the same molecule?
The value was “prolonged survival”.

And the “survival compared to mice treated with bortezomib and the anti-PTH compound” value ([3]; bortezomib 1 mg/kg, PTH 80 μg/kg, p=0.044 (bortezomib), p=0.047 (bortezomib and PTH))?
Its value is “significantly longer period of time”.

Which “survival compared to controls” value ([3]; carfilzomib 1.5 mg/kg subcutaneous twice a week, p=0.012, FIG. 8) does the source give for `CC(C)C[C@H](NC(=O)[C@H](CCc1ccccc1)NC(=O)CN1CCOCC1)C(=O)N[C@@H](Cc1ccccc1)C(=O)N[C@@H](CC(C)C)C(=O)[C@@]1(C)CO1` [carfilzomib] here?
Its value is “increased survival”.

With “{[TYR^34]bPTH-(7-34)} (FMHNLGKHLSSMERVEWLRKKLQDVHNY; Parathyroid hormone; UniProt P01268 38-65, looked up, variant F34Y) [anti-PTH, analog of PTH, antagonist of PTH]” as the molecule, how does the “effect on 5TGM1 cell survival” value (5TGM1 myeloma cells; anti-PTH alone at 100 nM, 500 nM and 1 μM, p=0.1, FIG. 3) read?
The value was “did not have an effect”.

B1: parathyroid hormone (peptide, UniProt P01270 32-115, looked up)
Parathyroid hormone: SVSEIQLMHNLGKHLNSMERVEWLRKKLQDVHNFVALGAPLAPRDAGSQRPRKKEDNVLVESHEKSLGEADKADVNVLTKAKSQ
modifications: Parathyroid hormone
notes: 84 amino acid polypeptide secreted by the parathyroid glands
Which results are given for B1?
serum IgG level compared to controls [1]: significant inhibition; 5TGM1 cell growth compared to controls (5TGM1 myeloma cells; PTH alone 10 nM, p=0.1): not a significant difference; 5TGM1 cell growth compared to controls (5TGM1 myeloma cells; PTH alone 50 nM, p=0.001): statistically significant decrease in cell growth; 5TGM1 cell growth compared to controls (5TGM1 myeloma cells; PTH alone 100 nM, p=0.001): statistically significant decrease in cell growth
